The record followed here is patent US20220296595A1, “CDK INHIBITORS” (QILU REGOR THERAPEUTICS INC., priority 2019, published 2022).

Each structure is given as a SMILES string. A value given as a limit tells only on which side of the number the result lay.

One experiment has as its target T1, CDK4/CyclinD1 (Homo sapiens, UniProt P11802).
T1 construct: purchased Thermofisher PR8064A
Description: Assay for inhibition of CDK4/CyclinD1 (Caliper microfluidic kinase assay). Format: biochemical. To be noted: CDK4/CyclinD1, 200 μM ATP. In short, it runs like this:
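IC50 was obtained by 4-parameter sigmoidal fitting after 1 nM CDK4/CyclinD1, 200 μM ATP and 1 μM FL-34 substrate reacted for 3 h at room temperature (pH 7.5 HEPES, 10 mM MgCl2). After EDTA quench, substrate and product were separated and detected on a Caliper microfluidic chip.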

A further experiment deals with T2, CDK6/CyclinD3 (Homo sapiens, UniProt Q00534).
T2 construct: purchased Carna 04-107
The experiment is described as follows: Assay for inhibition of CDK6/CyclinD3 (Caliper microfluidic kinase assay). To be noted: CDK6/CyclinD3, 300 μM ATP. In kind it is biochemical. An outline of the steps: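 IC50s came from four-parameter dose-response fits of microfluidic substrate/product separation data. Reactions held 2 nM CDK6/CyclinD3, 300 μM ATP and 1 μM 5-FAM peptide FL-34 in pH 7.5 HEPES/MgCl2 buffer, ran 3 hours at room temperature, then were quenched with EDTA.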

The target in a further experiment is T3, CDK2/CyclinE1 (Homo sapiens, UniProt P24941).
T3 construct: purchased SignalChem C29-18G
The experiment is described as follows: Assay for inhibition of CDK2/CyclinE1 (Caliper microfluidic kinase assay). To be noted: CDK2/CyclinE1, 100 μM ATP; read-out: CDK2 IC50. In kind it is biochemical. An outline of the steps: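 IC50 came from 4-parameter fits of substrate-to-product conversion, separated on a Caliper chip after an EDTA stop. Reactions ran 3 hours at room temperature with 100 μM ATP, 5 μM fluorescent FL-18 peptide and 5 nM enzyme in 100 mM HEPES pH 7.5, 10 mM MgCl2.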

The next experiment concerns T47D breast cancer cells. Description: Anti-proliferation assay in T47D cell (Cyquant, day 6). To be noted: Homo sapiens, T47D, anti-proliferation, T47D cells; read-out: T47D IC50. In kind it is cell-based, human. An outline of the steps:
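A ten-point, 3-fold compound series (10 μM down to 0.51 nM) was applied to overnight-settled cells in 10% FBS RPMI 1640, and DNA content was read by CyQuant fluorescence 6 days later. An untreated plate read before dosing served as baseline for subtraction before IC50 fitting.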

In experiment [1] the test system is phosphorylation of Retinoblastoma Protein (pRb Ser807/811 or Ser780) in T47D cells. Description: Inhibition of phosphorylation of retinoblastoma protein (pRb) in T47D cell (ELISA). In kind it is cell-based, human. To be noted: Homo sapiens, T47D, read-out: Phospho T47D Ser807 IC50, pRb Ser807 phosphorylation, T47D cells. In short, it runs like this: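 T47D cells in RPMI 1640 + 10% FBS, adhered overnight, then treated 24 h with 3-fold compound titrations (top concentration […]). Lysates assayed by sandwich ELISA for pRb Ser807/811 or Ser780 with HRP/TMB detection. IC50 from 4-parameter sigmoidal fit.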

T2 sequence (Q00534 whole entry): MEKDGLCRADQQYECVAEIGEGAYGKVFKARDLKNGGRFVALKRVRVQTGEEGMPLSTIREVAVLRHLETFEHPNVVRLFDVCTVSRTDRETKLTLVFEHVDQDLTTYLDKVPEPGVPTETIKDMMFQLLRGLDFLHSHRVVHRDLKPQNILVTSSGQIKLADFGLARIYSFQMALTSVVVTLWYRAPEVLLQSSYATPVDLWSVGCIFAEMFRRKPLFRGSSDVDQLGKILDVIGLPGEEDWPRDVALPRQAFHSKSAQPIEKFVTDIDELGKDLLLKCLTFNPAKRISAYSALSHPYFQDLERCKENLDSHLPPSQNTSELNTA
T2 sequence (P30281 whole entry partner): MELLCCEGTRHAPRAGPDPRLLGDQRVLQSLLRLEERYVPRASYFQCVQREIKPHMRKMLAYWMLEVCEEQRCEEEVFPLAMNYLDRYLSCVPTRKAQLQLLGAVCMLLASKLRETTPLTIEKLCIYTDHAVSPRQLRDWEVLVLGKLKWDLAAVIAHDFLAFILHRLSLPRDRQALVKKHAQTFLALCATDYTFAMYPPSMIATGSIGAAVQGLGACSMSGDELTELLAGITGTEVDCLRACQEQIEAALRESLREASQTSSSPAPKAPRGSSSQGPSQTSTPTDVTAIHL
T1 sequence (P11802 whole entry): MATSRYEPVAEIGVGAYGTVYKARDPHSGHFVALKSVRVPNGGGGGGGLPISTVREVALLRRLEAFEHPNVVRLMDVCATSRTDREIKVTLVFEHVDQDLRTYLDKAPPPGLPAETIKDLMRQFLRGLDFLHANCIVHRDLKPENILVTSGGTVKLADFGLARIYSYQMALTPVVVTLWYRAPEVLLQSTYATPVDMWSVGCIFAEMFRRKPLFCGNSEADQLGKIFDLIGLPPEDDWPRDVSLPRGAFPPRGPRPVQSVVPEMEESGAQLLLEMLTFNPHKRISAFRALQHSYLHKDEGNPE
T1 sequence (P24385 whole entry partner): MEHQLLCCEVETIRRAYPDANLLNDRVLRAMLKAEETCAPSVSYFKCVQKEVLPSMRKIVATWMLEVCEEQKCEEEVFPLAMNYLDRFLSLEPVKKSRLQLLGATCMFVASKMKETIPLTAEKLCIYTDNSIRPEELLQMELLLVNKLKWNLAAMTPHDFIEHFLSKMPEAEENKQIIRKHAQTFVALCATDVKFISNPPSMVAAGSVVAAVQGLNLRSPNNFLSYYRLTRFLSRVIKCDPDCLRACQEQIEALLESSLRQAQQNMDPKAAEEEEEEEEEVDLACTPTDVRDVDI

Consider `Cc1nc2c(F)nc(-c3ccnc(Nc4ccc(N5CCCC(N(C)C)C5=O)cn4)n3)cc2n1C(C)C` (stereo not drawn) [Synthetic Example 301, 3-(dimethylamino)-1-[6-[[4-(4-fluoro-1-isopropyl-2-methyl-imidazo[4,5-c]pyridin-6-yl)pyrimidin-2-yl]amino]-3-pyridyl]piperidin-2-one], for which the IC50 against CDK4/CyclinD1 is less than 10 nM; at CDK6/CyclinD3, less than 10 nM; at CDK2/CyclinE1, more than 1000 nM; in the experiment on T47D breast cancer cells, less than 100 nM; in experiment [1], less than 100 nM.
As to `CC(C)c1cnn2ccc(-c3nc(Nc4ccc(N5CCC(N(C)C)CC5=O)cn4)ncc3F)cc12` (stereo not drawn) [compound 3], the IC50 at CDK4/CyclinD1 was less than 10 nM; on CDK6/CyclinD3, 10 to 100 nM; at CDK2/CyclinE1 it was 10 to 100 nM; with T47D breast cancer cells, less than 100 nM; in experiment [1] it was less than 100 nM.
Consider `CC(C)c1cnn2ccc(-c3nc(Nc4ccc(N5CCOCC5=O)cc4F)ncc3F)cc12` [compound 7], for which the IC50 on CDK4/CyclinD1 was less than 10 nM; against CDK6/CyclinD3, 10 to 100 nM; at CDK2/CyclinE1, less than 10 nM; with T47D breast cancer cells it was 100 to 500 nM; in experiment [1], 100 to 500 nM.
Consider `CC(C)c1cnn2ccc(-c3nc(Nc4ccc(N5CCOCC5=O)cc4)ncc3F)cc12` [compound 25], for which the 50% inhibitory concentration (IC50) at CDK4/CyclinD1 is less than 10 nM; at CDK6/CyclinD3, 10 to 100 nM; on CDK2/CyclinE1 it was less than 10 nM; in the experiment on T47D breast cancer cells, less than 100 nM; in experiment [1], less than 100 nM.
As to `CC(C)c1cnn2ccc(-c3nc(Nc4ccc(N5CCOCC5=O)c(F)c4)ncc3F)cc12` [compound 26], the IC50 is less than 10 nM against CDK4/CyclinD1; 10 to 100 nM against CDK6/CyclinD3; less than 10 nM on CDK2/CyclinE1; 100 to 500 nM in the experiment with T47D breast cancer cells; less than 100 nM in experiment [1].
In the case of `CC(C)c1cnn2ccc(-c3nc(Nc4ccc(S(N)(=O)=O)cc4)ncc3F)cc12` [compound 27], the IC50 at CDK4/CyclinD1 is 10 to 100 nM; against CDK6/CyclinD3, 100 to 1000 nM; at CDK2/CyclinE1, less than 10 nM; in the experiment on T47D breast cancer cells, less than 100 nM; in experiment [1], 100 to 500 nM.
For `CC(C)c1cnn2ccc(-c3ccnc(Nc4ccc(N5CCOCC5=O)cn4)n3)cc12` [compound 28] the same measures were less than 10 nM, 10 to 100 nM, less than 10 nM, less than 100 nM and less than 100 nM.
For `CC(C)c1cnn2ccc(-c3ccnc(Nc4ccc(N5CCCNCC5=O)cn4)n3)cc12` [compound 30] the same measures were less than 10 nM, 10 to 100 nM, 10 to 100 nM, 100 to 500 nM and less than 100 nM.
For `CC(C)c1cnn2cc(-c3ccnc(Nc4ccc(N5CCNCCC5=O)cn4)n3)ccc12` [compound 31] the same measures were less than 10 nM, 10 to 100 nM, 10 to 100 nM, less than 100 nM and less than 100 nM.
Regarding `CC(C)c1cnn2ccc(-c3nc(Nc4ccc(N5CCCNCC5=O)cn4)ncc3F)cc12` [compound 33], the concentration for half-maximal inhibition (IC50) was less than 10 nM at CDK4/CyclinD1; 10 to 100 nM on CDK6/CyclinD3; 10 to 100 nM on CDK2/CyclinE1; less than 100 nM in the experiment on T47D breast cancer cells; less than 100 nM in experiment [1].
Take `CC(C)c1cnn2ccc(-c3nc(Nc4ccc(N5CCNCCC5=O)cn4)ncc3F)cc12` [compound 34]: the IC50 at CDK4/CyclinD1 was less than 10 nM; against CDK6/CyclinD3, 10 to 100 nM; on CDK2/CyclinE1 it was 10 to 100 nM; with T47D breast cancer cells it was less than 100 nM; in experiment [1], less than 100 nM.
Take `CC(C)c1cnn2ccc(-c3ccnc(Nc4ccc(N5CCNCC5=O)cn4)n3)cc12` [compound 37]: the 50% inhibitory concentration (IC50) is less than 10 nM on CDK4/CyclinD1; 10 to 100 nM on CDK6/CyclinD3; less than 10 nM on CDK2/CyclinE1; less than 100 nM in the experiment with T47D breast cancer cells; less than 100 nM in experiment [1].
